Consider 1 compound from publication PMC8879074, “A Novel Small Molecular Prostaglandin Receptor EP4 Antagonist, L001, Suppresses Pancreatic Cancer Metastasis” (Molecules, 2022).

The target of experiment [1] is T1, human EP3 (Homo sapiens, UniProt P43115).
T1 construct: expressed in transfected cells; host or cells: CHO-Gα16
T1 sequence (P43115 1-390): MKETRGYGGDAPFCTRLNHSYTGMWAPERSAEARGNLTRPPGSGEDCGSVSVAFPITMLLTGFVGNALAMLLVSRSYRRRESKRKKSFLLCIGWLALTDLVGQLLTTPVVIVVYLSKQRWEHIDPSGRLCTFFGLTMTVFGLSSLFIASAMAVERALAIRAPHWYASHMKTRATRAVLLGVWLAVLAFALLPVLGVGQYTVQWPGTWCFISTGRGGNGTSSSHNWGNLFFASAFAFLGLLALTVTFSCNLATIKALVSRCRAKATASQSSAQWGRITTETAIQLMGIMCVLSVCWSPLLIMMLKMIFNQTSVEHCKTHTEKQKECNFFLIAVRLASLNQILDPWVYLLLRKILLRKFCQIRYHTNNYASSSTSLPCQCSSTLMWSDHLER
The experiment can be described thus: Calcium flux assay, human EP3. The experiment is classed as cell-based. As to conditions: CHO-Gα16 cells, PGE2 (EC80). How it is done:
(§1) Calcium flux assay was conducted as described in our previous study. Briefly, CHO-Gα16 cells were transfected, respectively, with human EP1, human EP2, human EP3, human EP4, monkey EP4, mouse EP4 and rat EP4 overexpression constructs using lipofectamine 2000 according to the manufacturer’s manual. Cells were then seeded into a 96-well black plate with a cell density of 2 × 10^4 cells/100 μL per well for a 16-h culture. On the next day, cells were incubated for 45 min with reagents (100 μL/well) of Calcium-5 Assay Kit (Molecular Devices, San Jose, CA, USA). Then, cells were pre-treated with indicated concentrations of L001 for 15 min and stimulated with PGE2 (EC80). The calcium flux was detected subsequently by a Flexstation® 3 Multi-Mode Microplate Reader (Molecular Devices, San Jose, CA, USA).
A general note: Calcium flux is commonly read through the fluorescence of an indicator in the cells.

The target of experiment [2] is T2, human EP2 (Homo sapiens, UniProt P43116).
T2 construct: expressed in transfected cells; host or cells: CHO-Gα16
The experiment can be described thus: Calcium flux assay, human EP2. The experiment is classed as cell-based. The note with it: CHO-Gα16 cells, PGE2 (EC80). How it is done:
as §1

Experiment [3] deals with Pan02 cells. The experiment can be described thus: Wound healing assay, Pan02. The experiment is classed as cell-based, murine. As to conditions: 0.1 μM PGE2, 24 h, dose-dependent. How it is done: (§2) The wound healing assay was performed according to a standard protocol as described before. Briefly, Pan02 and BxPC-3 cells were grown as a confluent monolayer in 12-well plates (Corning, Corning, NY, USA) overnight and starved with serum-free medium for 6 h. The monolayer cells were disrupted with a P100 micropipette tip (JET BIOFIL, Guangzhou, China) and rinsed with PBS to remove detached cells. Medium containing different concentrations of compounds was added subsequently. After 24 h, treated cells were stained with 2 μM calcein-AM (Yeasen, Shanghai, China) for 20 min and washed with PBS. Photos were taken of the area in the scraped zone of each dish at 100× magnification by using an inverted fluorescent microscope (OLYMPUS, Tokyo, Japan).

Experiment [4] deals with Pan02 cells. The experiment can be described thus: Transwell migration assay, Pan02. The note with it: Pan02; with PGE2; 24 h. The experiment is classed as cell-based, murine. How it is done: The transwell assay was conducted as described previously, using 8 μm pore transwell inserts (Corning, NY, USA). Cells were suspended in serum-free DMEM and seeded into upper chambers at appropriate density. The bottom chamber was filled with DMEM supplemented with 10% fetal bovine serum and indicated concentrations of PGE2. The compounds were added in both upper and bottom chambers. […] Migrated cells were counted and quantified using image J.

Experiment [5] deals with EP4 (Homo sapiens, UniProt P35408). The experiment can be described thus: cAMP responsive element (CRE) luciferase reporter assay. The experiment is classed as cell-based. On the set-up: host or cells: HEK293 (results) / CHO-K1 (methods). How it is done: CHO-K1 cells or pancreatic cancer cell lines were transfected with a cAMP responsive element (CRE) reporter or TEAD reporter using lipofectamine 2000 according to the manufacturer’s manual. Transfected cells were treated with varied concentrations of compounds for 24 h. Then, cells were lysed and luciferase activities were determined using Dual-Luciferase Reporter Assay Kit (Promega, Madison, WI, USA).

The test system of experiment [6] is ERK1/2 phosphorylation. The experiment can be described thus: Western blotting of PGE2-induced ERK1/2 phosphorylation. The experiment is classed as cell-based. The note with it: pre-incubation 20 min, then 30 nM PGE2 for 5 min; dose-dependent. A general note: A western blot detects proteins with antibodies after separation by electrophoresis.
Experiment [7] has as its target T3, human EP1 (Homo sapiens, UniProt P34995).
T3 construct: expressed in transfected cells; host or cells: CHO-Gα16
T3 sequence (P34995 1-402): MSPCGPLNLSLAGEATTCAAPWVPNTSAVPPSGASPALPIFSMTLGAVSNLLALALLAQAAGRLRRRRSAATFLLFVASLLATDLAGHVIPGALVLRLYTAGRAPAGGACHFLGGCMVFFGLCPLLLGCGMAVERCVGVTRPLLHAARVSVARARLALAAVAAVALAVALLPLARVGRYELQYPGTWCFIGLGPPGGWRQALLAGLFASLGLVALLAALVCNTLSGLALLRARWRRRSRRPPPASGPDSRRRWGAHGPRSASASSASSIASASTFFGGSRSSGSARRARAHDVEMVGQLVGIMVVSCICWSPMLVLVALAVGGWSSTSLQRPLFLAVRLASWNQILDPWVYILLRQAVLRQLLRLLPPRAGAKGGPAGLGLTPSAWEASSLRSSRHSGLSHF
The experiment can be described thus: Calcium flux assay, human EP1. The experiment is classed as cell-based. As to conditions: CHO-Gα16 cells, PGE2 (EC80). How it is done: as §1

Experiment [8] has as its system YAP/TEAD reporter in BxPC-3 cells. The experiment can be described thus: TEAD-driven luciferase reporter assay, BxPC-3. The experiment is classed as cell-based, human. The note with it: 16 h. How it is done:
CHO-K1 cells or pancreatic cancer cell lines were transfected with a cAMP responsive element (CRE) reporter or TEAD reporter using lipofectamine 2000 according to the manufacturer’s manual. […] Then, cells were lysed and luciferase activities were determined using Dual-Luciferase Reporter Assay Kit (Promega, Madison, WI, USA).
A general note: A reporter such as luciferase makes a cellular process visible.

The target of experiment [9] is T4, mouse EP4 (Mus musculus, UniProt P32240).
T4 construct: expressed in transfected cells; host or cells: CHO-Gα16
The experiment can be described thus: Calcium flux assay, mouse EP4. The experiment is classed as cell-based. How it is done:
as §1

The subject of experiment [10] is YAP, CYR61 and CTGF mRNA in Pan02 cells. The experiment can be described thus: Real-time qPCR of YAP and YAP target genes, Pan02. The experiment is classed as cell-based, murine. As to conditions: PGE2 0.1 μM, compound 10 μM, 12 h. How it is done:
Total RNA was extracted from cells using TRIzol reagent. The cDNA was synthesized by RT-PCR kit (Vazyme Biotech, Nanjing, China). The band intensity was determined by the gel image analysis system (Bio-Rad, Hercules, CA, USA). SYBR Green-based qPCR (Yeason, Shanghai, China) was conducted subsequently. Relative mRNA levels of target genes were normalized with β-actin. The sequences of primers are listed in Supplementary Table S1. The raw data are listed in Supplementary Table S2.

The subject of experiment [11] is BxPC-3 cells. The experiment can be described thus: Wound healing assay, BxPC-3. As to conditions: 0.1 μM PGE2, 24 h, dose-dependent. The experiment is classed as cell-based, human. How it is done:
as §2

Some results are limits rather than exact numbers.

Sequence of EP4 (P35408 whole entry): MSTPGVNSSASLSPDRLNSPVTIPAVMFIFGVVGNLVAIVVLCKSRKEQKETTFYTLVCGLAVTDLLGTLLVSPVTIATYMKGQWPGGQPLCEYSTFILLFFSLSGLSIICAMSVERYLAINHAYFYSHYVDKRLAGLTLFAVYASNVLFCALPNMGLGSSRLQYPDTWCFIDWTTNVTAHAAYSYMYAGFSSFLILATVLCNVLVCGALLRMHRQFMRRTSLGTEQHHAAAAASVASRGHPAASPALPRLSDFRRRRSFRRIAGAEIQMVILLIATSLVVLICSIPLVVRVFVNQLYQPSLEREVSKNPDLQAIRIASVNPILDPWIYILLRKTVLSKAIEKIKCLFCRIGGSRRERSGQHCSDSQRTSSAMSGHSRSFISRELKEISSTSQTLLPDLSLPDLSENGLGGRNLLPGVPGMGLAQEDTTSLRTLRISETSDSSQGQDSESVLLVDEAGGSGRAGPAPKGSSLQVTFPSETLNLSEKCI
T4 sequence (P32240 whole entry): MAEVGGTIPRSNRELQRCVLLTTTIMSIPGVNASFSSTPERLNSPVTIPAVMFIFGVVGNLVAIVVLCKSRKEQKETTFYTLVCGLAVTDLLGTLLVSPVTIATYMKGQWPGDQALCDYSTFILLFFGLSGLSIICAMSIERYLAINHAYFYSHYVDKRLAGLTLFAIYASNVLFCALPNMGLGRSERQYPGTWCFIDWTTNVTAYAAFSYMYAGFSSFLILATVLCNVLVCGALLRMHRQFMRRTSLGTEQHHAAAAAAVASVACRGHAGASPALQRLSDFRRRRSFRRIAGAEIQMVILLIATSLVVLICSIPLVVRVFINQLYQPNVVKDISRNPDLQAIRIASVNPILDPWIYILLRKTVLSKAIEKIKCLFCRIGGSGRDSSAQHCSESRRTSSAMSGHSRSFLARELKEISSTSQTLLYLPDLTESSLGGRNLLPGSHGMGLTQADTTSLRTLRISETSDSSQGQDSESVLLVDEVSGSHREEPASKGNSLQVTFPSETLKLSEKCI
T2 sequence (P43116 whole entry): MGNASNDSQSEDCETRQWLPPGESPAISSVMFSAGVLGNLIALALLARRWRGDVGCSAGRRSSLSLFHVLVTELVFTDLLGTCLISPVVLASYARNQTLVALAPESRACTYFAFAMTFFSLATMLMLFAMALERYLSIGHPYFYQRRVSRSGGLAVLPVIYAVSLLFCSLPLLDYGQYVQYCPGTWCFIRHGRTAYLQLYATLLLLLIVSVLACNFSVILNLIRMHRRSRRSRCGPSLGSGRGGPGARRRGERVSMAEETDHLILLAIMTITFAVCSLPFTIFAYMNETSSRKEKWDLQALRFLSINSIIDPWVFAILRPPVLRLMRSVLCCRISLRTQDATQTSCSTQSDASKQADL

The IC50 is the concentration that inhibits the measured activity by half. Consider `C[C@H](NC(=O)c1c(Cc2cccc(C(F)(F)F)c2)sc2c1CCOC2)c1ccc(C(=O)O)cc1` [L001], for which the IC50 in experiment [1] was > 10000 nM; in experiment [2] it was > 10000 nM; in experiment [5], 7.29 ± 0.64 nM; in experiment [7], > 10000 nM; in experiment [9], 3.2 ± 0.28 nM. Also, the PGE2-triggered wound closure result in experiment [3] and in [11] was “significantly blocked” each time. Besides, the “migrated cells in the lower layer of the transwell” value in experiment [4] is given as “reduced migrated cells”. Besides, the “antagonism efficacy on EP4 compared with E7046” value in [5] (CRE reporter assay) was “over 5 fold”. Moreover, in experiment [6], the “PGE2-induced phosphorylation of ERK1/2” value is given as “significantly blocked”. The “PGE2-driven YAP/TEAD reporter activity” value in experiment [8] is recorded as “remarkably suppressed”. In addition, in [10], the “mRNA expression levels of YAP, CYR61 and CTGF induced by PGE2, in comparison with E7046” value is listed as “stronger reductions”.
